Results as given in patent publication US20240197890A1, “FLAVONE DERIVATIVES AND USES IN TARGETING CK2-MEDIATED DISEASES AND CONDITIONS” (Salk Institute for Biological Studies, priority 2020, published 2024).

Key:
Assay type in all cases: cell-based, human
HMGB1 = HMGB1 secretion in AD patient iPSC-derived astrocytes (Western blot)
Procedure: (§1) Western blotting. For drug treatment assays, cells were treated with vehicle (DMSO) or 20 μM compound and stimulated with IL1-B 10 ng/mL for 1 h, 6 h, or 24 h. Cells were dissociated with 1:1 Accutase:papain for 3 min at rt, pelleted for 5 min at 800 g, and washed twice with cold DPBS. Pellets were lysed with RIPA buffer (Sigma R0278) supplemented with Halt protease inhibitor cocktail (Thermo Fisher 78445) and clarified by centrifugation (16,000 g, 10 min, 4° C.). Protein concentration was determined by BCA assay (Thermo Fisher). Proteins were denatured in 1×LDS Buffer and 2.5% beta-mercaptoethanol (X) for 10 min at 70° C., separated on Bolt 4-12% Bis-Tris Plus polyacrylamide gels (Thermo Fisher), transferred to PVDF membranes using the iBlot 2 Dry Blotting System, and blocked with 0.1% casein-PBS (Bio-Rad) for 1 h at room temperature. The blots were incubated with primary antibodies overnight at 4° C. in PBS containing 0.1% casein and 0.2% Tween-20. […] The blots were imaged using the Odyssey CLx imaging system and blots were analyzed on the ImageStudio software (LI-COR).
To further investigate this CK2 dysregulation in an in vitro AD model, iPSC-derived astrocytes were generated from a cohort of 6 AD patients and 5 age-matched controls. […] HMGB1 was detected in media from AD astrocytes in the absence of inflammatory stimuli (FIG. 12C). […]

IκB S32 = assay: Immunoblot of IκB S32 in IL1-β-stimulated astrocytes; conditions: after 5 hours
Procedure: as §1, with “For drug treatment assays, cells were treated with vehicle (DMSO) or 20 μM compound and stimulated with IL1-B 10 ng/mL for 1 h, 6 h, or 24 h.” left out, “Tween-20. Antibodies used: rabbit anti-CK2a1 (Bethyl #, 1:5000), rabbit anti-CK2a2 (Bethyl #, 1:5000), mouse anti-GAPDH (Fitzgerald #10-1501, 1:20,000), mouse anti-NF-KB (CST #6956S, 1:1000), pNF-KB S529 (TFS #14-9864-82, 1:100), LC3B (CST 2775, 1:1000), ACO2 (CST 6922, 1:1000), rabbit HMGB1 (Novus #NB1002322, 1:1000), mouse anti-IκBα (CST #4814S, 1:1000), mouse anti-IκBa pS32 (SC #8404, 1:500), HA-tag (Bethyl #A190-108A, 1:20000).” for “Tween-20.”, “(LI-COR). […]” for “(LI-COR).”

IL6 expression = IL6 expression in AD patient iPSC-derived astrocytes after IL1-β stimulation (qRT-PCR); conditions: controls and AD astrocytes

COc1cc(-c2cc(=O)c3c(O)cc(O)cc3o2)ccc1O [CHR, chrysoeriol]
HMGB1 secretion (HMGB1): reduced
IκB S32 levels (IκB S32): decreased
IL6 expression after IL1-β stimulation (IL6 expression): reduced
